We go through 1 molecule from patent US20210161189A1, “MONOESTER SUGAR DERIVATIVES AS FLAVOR MODIFIERS” (Firmenich SA, priority 2018, published 2021).

One assay has as its system sensory panel. As to the kind of experiment: Sensory panel, energy drink. The settings on record: panel score. Also on record: scale not given here. Format: in vivo, human. As to the method:
[…] In parallel, a control energy drink composition was also generated. A sensory panel consisting of between 6 to 8 persons compared the overall flavor, sweetness, acidity, bitterness, astringency, off-notes, and long-lastingness of the sweetness of the test composition and the control composition. The results were analyzed using the Duncan comparison test.

The target of the next assay is T1, β-Lactoglobulin layer (Bos taurus, UniProt P02754).
T1 sequence (P02754 17-178): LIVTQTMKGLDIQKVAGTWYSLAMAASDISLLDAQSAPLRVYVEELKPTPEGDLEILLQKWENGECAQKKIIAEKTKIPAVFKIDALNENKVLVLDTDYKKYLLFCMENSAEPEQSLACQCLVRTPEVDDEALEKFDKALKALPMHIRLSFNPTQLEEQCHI
As to the kind of experiment: QCM-D mass adsorption of BWAT Raspberry water films on a protein layer. It counts as physicochemical. The settings on record: for mass/area: mass absorption on protein layer. From the text: Quartz Crystal Microbalance with Dissipation monitoring (QCM-D) is a real-time, nanoscale technique for monitoring and characterizing thin films on surfaces as well for analyzing surface phenomena including thin film formation, adsorption, desorption, molecular interactions, reactions and structural properties. In this way, the QCM operates as a very sensitive balance.
A QCM sensor consists of a thin quartz disc sandwiched between a pair of electrodes. Due to the piezoelectric properties of quartz, it is possible to excite the crystal to oscillation by applying an AC voltage across its electrodes. Normally the electrodes are made of gold, which can be coated with a wide range of different materials. The resonance frequency (f) of the sensor depends on the total oscillating mass, including water coupled to the oscillation. When a thin film is attached to the sensor, the frequency decreases. If the film is thin and rigid the decrease in frequency is proportional to the mass of the film. Frequency monitoring gives information about mass changes and thickness of adsorbed film. Adsorbed films dampen the sensor's oscillation. […] Therefore dissipation is related to the rigidity of the adsorbed film.
This technique was used to analyse the properties of adsorbed BWAT Raspberry water films on a β-Lactoglobulin layer in order to compare the obtained physico-chemical data to the sensory data mentioned beforehand. β-Lactoglobulin was used in order to mimic the protein layer in the oral cavity.
The measurements were done as duplicates. First a protein layer was adsorbed on the quartz crystal. As soon as equilibrium is obtained, the excessive protein layer was rinsed with Millipore water in order to create a homogenous protein monolayer. Ensuing, the Raspberry water was left to rinse over the protein layer—frequency changes and energy dissipation were monitored during a time lapse of 10 min. A last rinsing step with Millipore was conducted.
To understand the role of glucose-6-O-octanoate (G60) as astringency/bitterness modulator the following solutions were investigated on their adsorption behavior.

Regarding `CCCCCCCC(=O)OC[C@@H](O)[C@@H](O)[C@H](O)[C@@H](O)C=O` [glucose-6-O-octanoate], in the assay on sensory panel (100 ppm in energy drink), the Acidity is recorded as 2.17, the Astringency was found to be 0.67, the Bitterness was 0.83 and the Long-Lasting is recorded as 2. Also, in the assay with sensory panel (100 ppm in energy drink), the “Overall Flavor” value worked out at 3.33. Moreover, in the assay on sensory panel (200 ppm in energy drink), the Acidity is 2.5, the Astringency was determined as 0.29, the Bitterness is reported as 0.93 and the Off-notes is given as 0.21. Besides, the “Overall Flavor” value in the assay on sensory panel (200 ppm in energy drink) turned out to be 3.5. The “Mass adsorption versus control sample” value at β-Lactoglobulin layer (BWAT raspberry water in presence of G60) is “higher mass adsorption compared to the control sample”. The mass/area on β-Lactoglobulin layer (BWAT w/ 200 ppm G60) was 1257 ng/cm^2. Besides, the mass/area on β-Lactoglobulin layer (BWAT w/ 1000 ppm G60) worked out at 1194 ng/cm^2. Further, the “Amount of rinsed away mass” value on β-Lactoglobulin layer (over the 10 min of mass adsorption monitoring, dependence on G60 concentration) is “The higher the G60 concentration the lower is the amount of rinsed away mass”.
